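Five compound concentrations were applied to cells in 96-well plates for 48 hours; endpoints were derived by simple linear interpolation of the resulting dose-response curve. TGI: concentration producing complete growth inhibition.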
Columns and labels:
Experiment in all cases: NCI tumour cell line growth inhibition, 48 h
M14 melanoma = tested on: M14 melanoma
HS 578T breast = tested on: HS 578T breast
MOLT-4 leukemia = tested on: MOLT-4 leukemia
COLO 205 colon = tested on: COLO 205 colon
IGROV1 ovarian = tested on: IGROV1 ovarian
CCRF-CEM leukemia = tested on: CCRF-CEM leukemia
HCT-15 colon = tested on: HCT-15 colon
SK-MEL-5 melanoma = tested on: SK-MEL-5 melanoma
SF-268 CNS = tested on: SF-268 CNS
HCC-2998 colon = tested on: HCC-2998 colon
786-0 renal = tested on: 786-0 renal
NCI-H460 lung = tested on: NCI-H460 lung
HT29 colon = tested on: HT29 colon
NCI/ADR-RES ovarian = tested on: NCI/ADR-RES ovarian
SN12C renal = tested on: SN12C renal
PC-3 prostate = tested on: PC-3 prostate
UACC-257 melanoma = tested on: UACC-257 melanoma
K-562 leukemia = tested on: K-562 leukemia
HOP-62 NSCLC = tested on: HOP-62 NSCLC
A498 renal = tested on: A498 renal
MDA-N = tested on: MDA-N
T-47D breast = tested on: T-47D breast
OVCAR-8 ovarian = tested on: OVCAR-8 ovarian
SK-MEL-28 melanoma = tested on: SK-MEL-28 melanoma
SF-295 CNS = tested on: SF-295 CNS
CAKI-1 renal = tested on: CAKI-1 renal
MALME-3M melanoma = tested on: MALME-3M melanoma
SK-MEL-2 melanoma = tested on: SK-MEL-2 melanoma
LOX IMVI melanoma = tested on: LOX IMVI melanoma
UO-31 renal = tested on: UO-31 renal
MDA-MB-231 breast = tested on: MDA-MB-231 breast
SR leukemia = tested on: SR leukemia
MDA-MB-435 = tested on: MDA-MB-435
HOP-92 NSCLC = tested on: HOP-92 NSCLC
OVCAR-3 ovarian = tested on: OVCAR-3 ovarian
SK-OV-3 ovarian = tested on: SK-OV-3 ovarian
SW-620 colon = tested on: SW-620 colon
ACHN renal = tested on: ACHN renal
DU-145 prostate = tested on: DU-145 prostate
NCI-H522 lung = tested on: NCI-H522 lung
RXF 393 renal = tested on: RXF 393 renal
EKVX NSCLC = tested on: EKVX NSCLC
MCF7 breast = tested on: MCF7 breast
NCI-H23 lung = tested on: NCI-H23 lung
HCT-116 colon = tested on: HCT-116 colon
HL-60(TB) leukemia = tested on: HL-60(TB) leukemia
A549 NSCLC = tested on: A549 NSCLC
RPMI-8226 leukemia = tested on: RPMI-8226 leukemia
NCI-H226 lung = tested on: NCI-H226 lung
SNB-19 CNS = tested on: SNB-19 CNS
KM12 colon = tested on: KM12 colon
UACC-62 melanoma = tested on: UACC-62 melanoma
OVCAR-4 ovarian = tested on: OVCAR-4 ovarian
OVCAR-5 ovarian = tested on: OVCAR-5 ovarian
BT-549 breast = tested on: BT-549 breast
U251 CNS = tested on: U251 CNS
SF-539 CNS = tested on: SF-539 CNS
TK-10 renal = tested on: TK-10 renal

## CCOC(=O)C1(O)C(=O)C2=C3C(=O)OC(C4OC(=O)c5c(c(O)c(O)c(O)c5C31)-c1c(cc(O)c(O)c1O)C(=O)OC1COC(=O)c3cc(O)c(O)c(O)c3-c3c(cc(O)c(O)c3O)C(=O)OC14)[C@@H]2O (stereo not given in full)
M14 melanoma
  TGI: 67.6 µM
HS 578T breast
  TGI: > 100 µM
MOLT-4 leukemia
  TGI: 57.2 µM
COLO 205 colon
  TGI: 35.4 µM
IGROV1 ovarian
  TGI: 79.5 µM
CCRF-CEM leukemia
  TGI: 52.6 µM
HCT-15 colon
  TGI: 40.8 µM
SK-MEL-5 melanoma
  TGI: 27.8 µM
SF-268 CNS
  TGI: 52.9 µM
HCC-2998 colon
  TGI: 95.4 µM
786-0 renal
  TGI: 39.4 µM
NCI-H460 lung
  TGI: > 100 µM
HT29 colon
  TGI: 51.3 µM
NCI/ADR-RES ovarian
  TGI: > 100 µM
SN12C renal
  TGI: 35.4 µM
PC-3 prostate
  TGI: > 100 µM
UACC-257 melanoma
  TGI: > 100 µM
K-562 leukemia
  TGI: 56.9 µM
HOP-62 NSCLC
  TGI: > 100 µM
A498 renal
  TGI: > 100 µM
MDA-N
  TGI: 37.8 µM
T-47D breast
  TGI: > 100 µM
OVCAR-8 ovarian
  TGI: 39.5 µM
SK-MEL-28 melanoma
  TGI: > 100 µM
SF-295 CNS
  TGI: 43 µM
CAKI-1 renal
  TGI: 25.9 µM
MALME-3M melanoma
  TGI: 95.8 µM
SK-MEL-2 melanoma
  TGI: 94.7 µM
LOX IMVI melanoma
  TGI: 39.3 µM
UO-31 renal
  TGI: > 100 µM
MDA-MB-231 breast
  TGI: 36.1 µM
SR leukemia
  TGI: > 100 µM
MDA-MB-435
  TGI: 33.4 µM
HOP-92 NSCLC
  TGI: 86.5 µM
OVCAR-3 ovarian
  TGI: 85.4 µM
SK-OV-3 ovarian
  TGI: > 100 µM
SW-620 colon
  TGI: 54.5 µM
ACHN renal
  TGI: 35.2 µM
DU-145 prostate
  TGI: > 100 µM
NCI-H522 lung
  TGI: 53.6 µM
RXF 393 renal
  TGI: 36.8 µM
EKVX NSCLC
  TGI: 38.4 µM
MCF7 breast
  TGI: 40.1 µM
NCI-H23 lung
  TGI: 39.5 µM
HCT-116 colon
  TGI: 30.8 µM
HL-60(TB) leukemia
  TGI: 72.7 µM
A549 NSCLC
  TGI: 44.4 µM
RPMI-8226 leukemia
  TGI: 85 µM
NCI-H226 lung
  TGI: 48.6 µM
SNB-19 CNS
  TGI: > 100 µM
KM12 colon
  TGI: > 100 µM
UACC-62 melanoma
  TGI: 43.1 µM
OVCAR-4 ovarian
  TGI: 45.1 µM
OVCAR-5 ovarian
  TGI: 35.3 µM
BT-549 breast
  TGI: 61.5 µM
U251 CNS
  TGI: 44.2 µM

## C/C(=N\O)c1ccc(Nc2nc3ccccc3c3occc23)cc1
M14 melanoma
  TGI: 22.4 µM
HS 578T breast
  TGI: 53.3 µM
MOLT-4 leukemia
  TGI: 13.6 µM
COLO 205 colon
  TGI: 20 µM
IGROV1 ovarian
  TGI: 29.6 µM
CCRF-CEM leukemia
  TGI: 27.7 µM
HCT-15 colon
  TGI: 7.77 µM
SK-MEL-5 melanoma
  TGI: 35.1 µM
SF-268 CNS
  TGI: 39.9 µM
HCC-2998 colon
  TGI: 20.8 µM
786-0 renal
  TGI: 9.93 µM
NCI-H460 lung
  TGI: 4.34 µM
HT29 colon
  TGI: 2.68 µM
NCI/ADR-RES ovarian
  TGI: 47.8 µM
SN12C renal
  TGI: 56.3 µM
PC-3 prostate
  TGI: 50.7 µM
UACC-257 melanoma
  TGI: 48.2 µM
K-562 leukemia
  TGI: 6.04 µM
HOP-62 NSCLC
  TGI: 27 µM
A498 renal
  TGI: 37.8 µM
MDA-N
  TGI: 96.6 µM
T-47D breast
  TGI: 32.7 µM
OVCAR-8 ovarian
  TGI: 54.7 µM
SF-295 CNS
  TGI: 11.1 µM
SF-539 CNS
  TGI: 37.1 µM
CAKI-1 renal
  TGI: 7.28 µM
MALME-3M melanoma
  TGI: 61.3 µM
SK-MEL-2 melanoma
  TGI: 51.5 µM
LOX IMVI melanoma
  TGI: 32.8 µM
TK-10 renal
  TGI: 7.63 µM
UO-31 renal
  TGI: > 100 µM
MDA-MB-231 breast
  TGI: 8.22 µM
SR leukemia
  TGI: 5.07 µM
MDA-MB-435
  TGI: 44.9 µM
HOP-92 NSCLC
  TGI: 52.4 µM
OVCAR-3 ovarian
  TGI: > 100 µM
SK-OV-3 ovarian
  TGI: 57.4 µM
ACHN renal
  TGI: 47.7 µM
DU-145 prostate
  TGI: 35.6 µM
NCI-H522 lung
  TGI: 9.47 µM
EKVX NSCLC
  TGI: > 100 µM
MCF7 breast
  TGI: 14.8 µM
NCI-H23 lung
  TGI: 62.4 µM
HCT-116 colon
  TGI: 18 µM
HL-60(TB) leukemia
  TGI: 8.49 µM
A549 NSCLC
  TGI: 34.8 µM
RPMI-8226 leukemia
  TGI: 6.62 µM
NCI-H226 lung
  TGI: 10.8 µM
SNB-19 CNS
  TGI: > 100 µM
KM12 colon
  TGI: 20.8 µM
UACC-62 melanoma
  TGI: 61 µM
OVCAR-5 ovarian
  TGI: > 100 µM
BT-549 breast
  TGI: 53.1 µM
U251 CNS
  TGI: > 100 µM

— PubChem BioAssay (NCI)
